According to PubChem BioAssay (NCI):
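A five-concentration, 48-hour dose response in 96-well plates underlies each endpoint, interpolated linearly between surrounding concentrations. GI50 marks 50% less growth. The concentration for full growth arrest is given as TGI.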

Experiments:
Experiment in all cases: inhibition of tumour cell growth, NCI panel, 48 h
HCT-116 colon = test system: HCT-116 colon
SK-MEL-28 melanoma = test system: SK-MEL-28 melanoma
OVCAR-4 ovarian = test system: OVCAR-4 ovarian
UACC-257 melanoma = test system: UACC-257 melanoma
HS 578T breast = test system: HS 578T breast
SNB-75 CNS = test system: SNB-75 CNS
MDA-MB-231 breast = test system: MDA-MB-231 breast
MDA-MB-435 = test system: MDA-MB-435
OVCAR-3 ovarian = test system: OVCAR-3 ovarian
TK-10 renal = test system: TK-10 renal

| Structure (SMILES) | TGI (HCT-116 colon) [µM] | TGI (SK-MEL-28 melanoma) [µM] | TGI (OVCAR-4 ovarian) [µM] | TGI (UACC-257 melanoma) [µM] | TGI (HS 578T breast) [µM] | TGI (SNB-75 CNS) [µM] | TGI (MDA-MB-231 breast) [µM] | TGI (MDA-MB-435) [µM] | TGI (OVCAR-3 ovarian) [µM] | TGI (TK-10 renal) [µM] | GI50 (HCT-116 colon) [µM] | GI50 (SK-MEL-28 melanoma) [µM] | GI50 (OVCAR-4 ovarian) [µM] | GI50 (UACC-257 melanoma) [µM] | GI50 (HS 578T breast) [µM] | GI50 (SNB-75 CNS) [µM] | GI50 (MDA-MB-231 breast) [µM] | GI50 (MDA-MB-435) [µM] | GI50 (OVCAR-3 ovarian) [µM] | GI50 (TK-10 renal) [µM] |
| --- | --- | --- | --- | --- | --- | --- | --- | --- | --- | --- | --- | --- | --- | --- | --- | --- | --- | --- | --- | --- |
| O=c1[nH]c2cc3[nH]c4ncccc4c(=O)c3cc2[nH]1 | > 10 | > 10 | > 10 | > 10 | > 10 | > 10 | > 10 | > 10 | > 10 | > 10 | – | – | – | – | – | – | – | – | – | – |
| Cc1ccc(SC(=O)N2C(=S)NC(=NC3CCCCC3)C23CCCCC3)cc1 | > 100 | > 100 | > 100 | > 100 | > 100 | > 100 | > 100 | > 100 | > 100 | > 100 | – | – | – | – | – | – | – | – | – | – |
| CCN(CC)CCCC(C)Nc1c2ccc(C)cc2nc2ccc(OC)cc12 (stereo not given) | 6.46 | 3.35 | 3.02 | 3.05 | 17.2 | 3.24 | 5.41 | 3.38 | 4.14 | 12.5 | 0.585 | 1.87 | 1.13 | 1.62 | 3.26 | 1.37 | 1.61 | 1.6 | 1.75 | 0.569 |
| COc1ccc(Cl)cc1Nc1nc(C(F)(F)F)ccc1C(=O)N/N=C/c1cc(OC)c(OC)c(OC)c1 | 7.66 | 9.26 | > 100 | 3.96 | 4.67 | 9.8 | 8.66 | 7.72 | > 100 | 7.28 | 2.41 | 1.83 | 1.32 | 1.65 | 1.94 | 2.19 | 2.21 | 2.41 | 0.449 | 1.76 |
| CC1CCN(CC(=O)N2c3ccccc3Sc3cc4ccccc4cc32)CC1 | > 100 | > 100 | > 100 | > 100 | > 100 | > 100 | > 100 | > 100 | > 100 | > 100 | – | – | – | – | – | – | – | – | – | – |
| Cc1cc(N/N=C/c2nc(-c3ccc(Cl)cc3)oc2C)c2cc(Cl)ccc2n1 | 4.59 | 3.86 | 3.33 | 4.52 | 14.7 | 3.68 | 10.3 | 3.44 | 3.45 | 3.48 | 2.14 | 1.99 | 1.68 | 1.93 | 3.42 | 1.68 | 3.25 | 1.68 | 1.87 | 1.85 |
| CCN(CCNc1ccc(C)c2sc3ccccc3c(=O)c12)CC(C)(C)O | 22.6 | 17.8 | > 92.1 | 5.43 | 29.2 | 48.6 | 23.7 | 28.6 | 27.4 | 33.7 | 6.62 | 6.16 | 21.2 | 2.15 | 11.5 | 15.7 | 6.88 | 6.51 | 13.1 | 14.3 |
| O=Cc1ccc(-c2cccs2)s1 | > 100 | > 100 | > 77 | 15.1 | 98 | > 100 | > 100 | > 100 | 58.1 | 11.7 | – | – | – | – | – | – | – | – | – | – |
